One data set concerns DIO mice. Nature of the data set: Insulin tolerance test (ITT) in DIO mice. It is filed as in vivo, mouse. As to conditions: day 27, insulin 0.3 unit/kg i.p., FIG. 1. The procedure: The blood was collected (approximately 70 μL) from the same site by using a heparin-treated capillary (Hematokrit Kapilaren, 75 μL, […] LABORGERATE) and the collected blood was centrifuged (12,000 rpm, 7 min, 4° C.) in a hematocrit centrifuge (KUBOTA3100, Kubota Corp.) and the plasma was stored, as it is frozen in an Eppendorf tube, until it is used for measurement of triglyceride. The triglyceride measurement was carried out by using Triglyceride E-Test Wako (Wako Pure Chemical Industries). Four μL of the sample was added to 250 μL of the coloring liquid, after reaction at 37° C. for 1 hour, and the absorbance (595 nm) of the mixture was determined by using a microplate reader (Bio-Rad, Model 680). Separately, insulin tolerance test (ITT) was performed on day 27.
The mouse was left non-feeded in a fasting cage after drug administration on day 26. In the morning of the day of ITT (day 27), the fasting blood sugar was determined by a method identical with that used for blood sugar measurement on day 26. The blood sugar was measured once again in the afternoon of the same day; an insulin solution was administered intraperitoneally (0.3 unit/5 mL/kg) immediately after then; and the blood sugar was measured 30, 60, 120 and 180 minutes after insulin administration since then. […]
The insulin level was measured by using an insulin measurement kit (Lebis Insulin Mouse U, Shibayagi). […]

For a further data set, the system named is conscious rat. Nature of the data set: Effect on the cardiovascular system (heart rate) of conscious rat. Format: in vivo. The following applies: conscious SD rat, s.c. 1, 3 and 10 mg/kg at 30 minute intervals, FIG. 2. How it is done: SD male rats of 7 weeks of age (Charles River Laboratories Japan Inc.) were purchased and used when they are 8 weeks of age. The rats were anesthetized by intraperitoneal administration of pentobarbital at 60 mg/kg; the back central region and the femoral region were cut open; a polyethylene tube (SP-31, Natsume Seisakusho Co., Ltd.) connected to a polyurethane tube (BC-3.5P, American Access Technologies) was inserted from the back to the femoral region, to place the polyethylene tube in femoral artery. After the femoral region was sutured, a flexible stainless steel pipe containing the polyethylene tube was sutured and fixed to the back skin. Heparin at 100 IU to 200 IU/mL was filled into the polyethylene tube and the polyurethane tube for prevention of blood clotting. After surgical operation, the rats were placed and grown back in 5-compartment wire mesh cage. […]
The heart rate of the rats was determined, by sending the pulse wave obtained in the blood pressure amplifier (AP-641G, Nihon Kohden Corp.) attached to the Life Kit for monitoring blood pressure to an instantaneous heart rate meter unit (AT-601T, Nihon Kohden Corp.). The heart rate was recorded on the chart paper in a thermal multirecorder (RIA-1300A, Nihon Kohden Corp.) by using a polygraph (RM-6000, Nihon Kohden Corp.). […]

For the molecule `COc1cc(CN[C@@H](C)[C@H](O)c2ccc(O)c(NS(C)(=O)=O)c2)cc(OC)c1` [Example 1, N-(5-((1R,2S)-2-(3,5-Dimethoxybenzylamino)-1-hydroxypropyl)-2-hydroxyphenyl)methanesulfonamide], the “blood sugar after insulin administration (ITT) versus vehicle group” value in the data set with DIO mice is on record as “declined statistically significantly”. For the same molecule, the “influence on heart rate” value in the data set on conscious rat is “did not have any influence on rat heart rate”.

Values taken from patent US8198330B2, “Therapeutic or prophylactic agent for diabetes, obesity, dyslipidemia or metabolic syndrome comprising benzylamine derivative or pharmaceutically acceptable acid addition salt thereof” (Toray Industries, Inc., priority 2008, dated 2012).
